# Molecular target: BRD4 (BDI_K57-E168) (Homo sapiens, UniProt O60885)
# Assay: TR-FRET bromodomain binding assay, BRD4 BDI
# Method: A time-resolved fluorescence resonance energy transfer (TR-FRET) assay was used to determine the affinities of compounds of the Examples listed in Table 1 for each bromodomain of BRD4. […] An Alexa647-labeled BET-inhibitor was used as the fluorescent probe in the assay.
# (§1) Compound dilution series were prepared in DMSO via an approximately 3-fold serial dilution. Compound dilutions were added directly into white, low-volume assay plates (Perkin Elmer Proxiplate 384 Plus #6008280) using a Labcyte Echo in conjunction with Labcyte Access and Thermo Multidrop CombinL robotics. Compounds were then suspended in eight microliters (μL) of assay buffer (20 mM Sodium Phosphate, pH 6.0, 50 mM NaCl, 1 mM Ethylenediaminetetraacetic acid disodium salt dihydrate, 0.01% Triton X-100, 1 mM DL-Dithiothreitol) containing His-tagged bromodomain, Europium-conjugated anti-His antibody (Invitrogen PV5596) and Alexa-647-conjugated probe.
# After a one-hour equilibration at room temperature, TR-FRET ratios were determined using an Envision multilabel plate reader (Ex 340, Em 495/520).
# TR-FRET data were normalized to the means of 24 no-compound controls (“high”) and 8 controls containing 1 μM un-labeled probe (“low”). Percent inhibition was plotted as a function of compound concentration and the data were fit with the 4 parameter logistic equation to obtain IC50s. Inhibition constants (Ki) were calculated from the IC50s, probe Kd and probe concentration.
# Compound dilution series for Compounds A-E were prepared in DMSO via an approximately 3-fold serial dilution from 0.47 mM to 7.8 nM.
# as §1, with “Compound” for “Compound dilution series were prepared in DMSO via an approximately 3-fold serial dilution. Compound”
# TR-FRET data were normalized to the means of 24 no-compound controls (“high”) and 8 controls containing 1 μM un-labeled probe (“low”). Percent inhibition was plotted as a function of compound concentration and the data were fit with the 4 parameter logistic equation to obtain IC50s. Inhibition constants (Ki) were calculated from the IC50s, probe Kd and probe concentration. Typical Z′ values were between 0.65 and 0.75. The minimum significant ratio was determined to evaluate assay reproducibility (Eastwood et al., (2006) J Biomol Screen, 11: 253-261). The MSR was determined to be 2.03 for BDI and 1.93 for BDII, and a moving MSR (last six run MSR overtime) for both BDI and BDII was typically <3.
row,Ki [µM],Structure (SMILES)
1,1.67,"Cc1cc(F)cc(C)c1Oc1ccc(C(C)(C)O)cc1-c1cn(C)c(=O)cc1O[C@H]1CC[C@H](N2C(=O)C(C)(C)N(C)C2C)CC1 (relative stereo) [Example 134, 5-[2-(4-fluoro-2,6-dimethylphenoxy)-5-(2-hydroxypropan-2-yl)phenyl]-1-methyl-4-{[trans-4-(2,3,4,4-tetramethyl-5-oxoimidazolidin-1-yl)cyclohexyl]oxy}pyridin-2(1H)-one]"
2,1.8,"CC(=O)NC12CCC(C(=O)N[C@H]3CC[C@H](Oc4cc(=O)n(C)cc4-c4cc(C(C)(C)O)ccc4Oc4c(C)cc(F)cc4C)CC3)(C1)C2 (relative stereo) [Example 137, 4-acetamido-N-[trans-4-({5-[2-(4-fluoro-2,6-dimethylphenoxy)-5-(2-hydroxypropan-2-yl)phenyl]-1-methyl-2-oxo-1,2-dihydropyridin-4-yl}oxy)cyclohexyl]bicyclo[2.1.1]hexane-1-carboxamide]"
3,1.71,"CC(=O)N[C@H]1CC[C@H](Oc2cc(=O)n(C)cc2-c2cc(C(C)(C)O)cnc2Oc2c(C)cc(F)cc2C)CC1 [Example 1, N-(trans-4-{[2′-(4-fluoro-2,6-dimethylphenoxy)-5′-(2-hydroxypropan-2-yl)-1-methyl-6-oxo[1,6-dihydro[3,3′-bipyridine]]-4-yl]oxy}cyclohexyl)acetamide]"
4,5.89,"Cc1cccc(C)c1Oc1ccc(C(C)(C)O)cc1-c1cn(C)c(=O)cc1NC1CCN(S(C)(=O)=O)CC1 [Example 2, 5-[2-(2,6-dimethylphenoxy)-5-(2-hydroxypropan-2-yl)phenyl]-4-{[1-(methanesulfonyl)piperidin-4-yl]amino}-1-methylpyridin-2(1H)-one]"
5,1.02,"CC(=O)N[C@H]1CC[C@H](Oc2cc(=O)n(C)cc2-c2cc(C(C)(C)O)ccc2Oc2c(C)cc(F)cc2C)CC1 [Example 3, N-[trans-4-({5-[2-(4-fluoro-2,6-dimethylphenoxy)-5-(2-hydroxypropan-2-yl)phenyl]-1-methyl-2-oxo-1,2-dihydropyridin-4-yl}oxy)cyclohexyl]acetamide]"
6,1.45,"COC(=O)N[C@H]1CC[C@H](Oc2cc(=O)n(C)cc2-c2cc(C(C)(C)O)ccc2Oc2c(C)cc(F)cc2C)CC1 [Example 4, methyl [trans-4-({5-[2-(4-fluoro-2,6-dimethylphenoxy)-5-(2-hydroxypropan-2-yl)phenyl]-1-methyl-2-oxo-1,2-dihydropyridin-4-yl}oxy)cyclohexyl]carbamate]"
7,1.96,"COC(=O)N[C@H]1CC[C@H](Oc2cc(=O)n(C)cc2-c2cc(C(C)(C)O)cnc2Oc2c(C)cc(F)cc2C)CC1 [Example 5, methyl (trans-4-{[2′-(4-fluoro-2,6-dimethylphenoxy)-5′-(2-hydroxypropan-2-yl)-1-methyl-6-oxo[1,6-dihydro[3,3′-bipyridine]]-4-yl]oxy}cyclohexyl)carbamate]"
8,0.72,"CC(=O)NC[C@H]1C[C@H](Oc2cc(=O)n(C)cc2-c2cc(C(C)(C)O)ccc2Oc2c(C)cc(F)cc2C)C1 [Example 6, N-{[trans-3-({5-[2-(4-fluoro-2,6-dimethylphenoxy)-5-(2-hydroxypropan-2-yl)phenyl]-1-methyl-2-oxo-1,2-dihydropyridin-4-yl}oxy)cyclobutyl]methyl}acetamide]"
9,0.906,"COC(=O)NC[C@H]1C[C@H](Oc2cc(=O)n(C)cc2-c2cc(C(C)(C)O)ccc2Oc2c(C)cc(F)cc2C)C1 [Example 7, methyl {[trans-3-({5-[2-(4-fluoro-2,6-dimethylphenoxy)-5-(2-hydroxypropan-2-yl)phenyl]-1-methyl-2-oxo-1,2-dihydropyridin-4-yl}oxy)cyclobutyl]methyl}carbamate]"
10,2.7,"Cc1cc(F)cc(C)c1Oc1ccc(C(C)(C)O)cc1-c1cn(C)c(=O)cc1O[C@H]1C[C@@H](CNC(=O)OC(C)(C)C)C1 [Example 8, tert-butyl {[cis-3-({5-[2-(4-fluoro-2,6-dimethylphenoxy)-5-(2-hydroxypropan-2-yl)phenyl]-1-methyl-2-oxo-1,2-dihydropyridin-4-yl}oxy)cyclobutyl]methyl}carbamate]"
11,3.68,"Cc1cc(F)cc(C)c1Oc1ccc(C(C)(C)O)cc1-c1cn(C)c(=O)cc1NC1CCN(S(C)(=O)=O)CC1 [Example 9, 5-[2-(4-fluoro-2,6-dimethylphenoxy)-5-(2-hydroxypropan-2-yl)phenyl]-4-{[1-(methanesulfonyl)piperidin-4-yl]amino}-1-methylpyridin-2(1H)-one]"
12,2.33,"CC(=O)NC1CC2(C1)CC(Nc1cc(=O)n(C)cc1-c1cc(C(C)(C)O)ccc1Oc1c(C)cccc1C)C2 (stereo not drawn) [Example 10, N-[6-({5-[2-(2,6-dimethylphenoxy)-5-(2-hydroxypropan-2-yl)phenyl]-1-methyl-2-oxo-1,2-dihydropyridin-4-yl}amino)spiro[3.3]heptan-2-yl]acetamide]"
13,1.27,"Cc1cccc(C)c1Oc1ccc(C(C)(C)O)cc1-c1cn(C)c(=O)cc1NC1CCN(C(=O)OC(C)(C)C)C1 (stereo not drawn) [Example 11, tert-butyl 3-({5-[2-(2,6-dimethylphenoxy)-5-(2-hydroxypropan-2-yl)phenyl]-1-methyl-2-oxo-1,2-dihydropyridin-4-yl}amino)pyrrolidine-1-carboxylate]"
14,0.553,"Cc1cccc(C)c1Oc1ccc(C(C)(C)O)cc1-c1cn(C)c(=O)cc1NC1CCN(S(C)(=O)=O)C1 (stereo not drawn) [Example 12, 5-[2-(2,6-dimethylphenoxy)-5-(2-hydroxypropan-2-yl)phenyl]-4-{[1-(methanesulfonyl)pyrrolidin-3-yl]amino}-1-methylpyridin-2(1H)-one]"
15,> 13,"CC(=O)N[C@H]1CC[C@H](N(C)c2cc(=O)n(C)cc2-c2cc(C(C)(C)O)ccc2Oc2c(C)cc(F)cc2C)CC1 [Example 13, N-{trans-4-[{5-[2-(4-fluoro-2,6-dimethylphenoxy)-5-(2-hydroxypropan-2-yl)phenyl]-1-methyl-2-oxo-1,2-dihydropyridin-4-yl}(methyl)amino]cyclohexyl}acetamide]"
16,1.55,"CC(=O)N1CCC(Nc2cc(=O)n(C)cc2-c2cc(C(C)(C)O)ccc2Oc2c(C)cccc2C)C1 (stereo not drawn) [Example 14, 4-[(1-acetylpyrrolidin-3-yl)amino]-5-[2-(2,6-dimethylphenoxy)-5-(2-hydroxypropan-2-yl)phenyl]-1-methylpyridin-2(1H)-one]"
17,6.02,"Cc1cc(F)cc(C)c1Oc1ccc(C(C)(C)O)cc1-c1cn(C)c(=O)cc1O[C@H]1CC[C@H](CNC(=O)OC(C)(C)C)CC1 [Example 15, tert-butyl [trans-4-({5-[2-(4-fluoro-2,6-dimethylphenoxy)-5-(2-hydroxypropan-2-yl)phenyl]-1-methyl-2-oxo-1,2-dihydropyridin-4-yl}oxy)cyclohexyl]methylcarbamate]"
18,2.83,"CC(=O)N(C)[C@H]1CC[C@H](Oc2cc(=O)n(C)cc2-c2cc(C(C)(C)O)ccc2Oc2c(C)cc(F)cc2C)CC1 [Example 16, N-[trans-4-({5-[2-(4-fluoro-2,6-dimethylphenoxy)-5-(2-hydroxypropan-2-yl)phenyl]-1-methyl-2-oxo-1,2-dihydropyridin-4-yl}oxy)cyclohexyl]-N-methylacetamide]"
19,1.17,"CC(=O)N[C@H]1CC[C@H](Oc2cc(=O)n(C)cc2-c2cc(C(C)(C)O)cnc2Oc2c(C)cc(C(C)(C)O)cc2C)CC1 [Example 17, N-[trans-4-({5′-(2-hydroxypropan-2-yl)-2′-[4-(2-hydroxypropan-2-yl)-2,6-dimethylphenoxy]-1-methyl-6-oxo[1,6-dihydro[3,3′-bipyridine]]-4-yl}oxy)cyclohexyl]acetamide]"
20,0.982,"CC(=O)N[C@H]1CC[C@H](Oc2cc(=O)n(C)cc2-c2cc(C(C)(C)O)ccc2Oc2c(C)cc(C(C)(C)O)cc2C)CC1 [Example 18, N-{trans-4-[(5-{5-(2-hydroxypropan-2-yl)-2-[4-(2-hydroxypropan-2-yl)-2,6-dimethylphenoxy]phenyl}-1-methyl-2-oxo-1,2-dihydropyridin-4-yl)oxy]cyclohexyl}acetamide]"
21,2.89,"CC(=O)N[C@H]1CC[C@H](Nc2cc(=O)n(C)cc2-c2cc(C(C)(C)O)ccc2Oc2c(C)cc(F)cc2C)CC1 [Example 19, N-[trans-4-({5-[2-(4-fluoro-2,6-dimethylphenoxy)-5-(2-hydroxypropan-2-yl)phenyl]-1-methyl-2-oxo-1,2-dihydropyridin-4-yl}amino)cyclohexyl]acetamide]"

# Reference: patent US20210047304A1, “Bromodomain Inhibitors” (AbbVie Inc., priority 2016, published 2021)
